This is an account of results in publication PMC3741170, “Reconstructing the Qo Site of Plasmodium falciparum bc 1 Complex in the Yeast Enzyme” (PLoS ONE, 2013).

Several values for one entry are separate records, joined by “and”; a condition that tells them apart may be missing. Equal values may be shown once.

For assay [1], the system named is yeast bc 1 complex, Plasmodium-like Qo mutant PF12 (PF11 + Y279S). Kind of assay: Quinol:cytochrome c reductase activity, inhibitor titration, Plasmodium-like mutant PF12. In kind it is biochemical, Saccharomyces cerevisiae. The settings on record: ratio of IC50 on concentration of monomeric bc 1 complex. As for the experimental part: (§1) The mutants were generated by side-directed mutagenesis and mitochondrial transformation as described in [15]. They have identical nuclear and mitochondrial genomes with the exception of the mutations introduced in the cytochrome b gene.
(§2) Yeast mitochondria were prepared as in [16]. Bovine mitochondrial samples were kindly given by Prof. Peter Rich (UCL, UK). Quinol:cytochrome c reductase activity measurements were performed in 10mM potassium phosphate pH 7 and 20µM equine cytochrome c at room temperature. Mitochondria were diluted to 5–30 nM bc 1 complex. Concentrations of monomeric bc 1 complex were determined from the cytochrome b α-band in dithionite-reduced optical spectra, using ε = 28.5 mM^−1.cm^−1 at 562 nm minus 575 nm. Activity was initiated by the addition of 20µM decylubiquinol. Cytochrome c reduction was recorded at 550 nm versus 540 nm over a 3-min time-course in a Beckmann DU 640 spectrophotometer. Initial rates were measured. From these rates, turnover numbers (TN) were calculated as cytochrome c reduced per bc 1 complex per second.
(§3) Cytochrome c reduction activity was measured as described above in presence of increasing concentrations of inhibitors (six to ten different concentrations). Each measurement was repeated at least twice and averaged. […] The mid-point inhibition concentrations (IC50) were determined from the titrations. As the titrations were performed using mitochondrial samples containing different concentrations of bc 1 complex (5–30 nM), the results were presented as ratio of IC50 on the concentration of bc 1 complex.

The target in assay [2] is T1, yeast bc 1 complex, Plasmodium-like Qo mutant PF1 (Saccharomyces cerevisiae, UniProt P00163, C133V/C134L/H141Y/V135P/Y136W).
T1 construct: Yeast mitochondria were prepared as in; expressed in transfected cells; host or cells: Saccharomyces cerevisiae, mitochondrial transformation; mitochondria
In words: Quinol:cytochrome c reductase activity, inhibitor titration, Plasmodium-like mutant PF1. Type of assay: biochemical. As to conditions: ratio of IC50 on concentration of monomeric bc 1 complex. On the procedure: as §1, §2, §3

For assay [3], the target named is T2, yeast bc 1 complex, cytochrome b mutant L275F (Saccharomyces cerevisiae, UniProt P00163, L275F).
T2 construct: Yeast mitochondria were prepared as in; expressed in transfected cells; host or cells: Saccharomyces cerevisiae, mitochondrial transformation; mitochondria
Kind of assay: Quinol:cytochrome c reductase activity, inhibitor titration, mutant L275F. Type of assay: biochemical. As to conditions: for IC50: L275F, ratio of IC50 on concentration of monomeric bc 1 complex. As for the experimental part:
as §1, §2, §3

Assay [4] has as its system yeast bc 1 complex, Plasmodium-like Qo mutant PF11. In words: Quinol:cytochrome c reductase activity, inhibitor titration, Plasmodium-like mutant PF11. As to conditions: for IC50: PF11, ratio of IC50 on concentration of monomeric bc 1 complex. In kind it is biochemical, Saccharomyces cerevisiae. As for the experimental part: as §1, §2, §3
The target of assay [5] is T3, yeast bc 1 complex, Plasmodium-like Qo mutant PF2 (Saccharomyces cerevisiae, UniProt P00163, C133V/C134L/H141Y/L275F/V135P/Y136W).
T3 construct: Yeast mitochondria were prepared as in; expressed in transfected cells; host or cells: Saccharomyces cerevisiae, mitochondrial transformation; mitochondria
Kind of assay: Quinol:cytochrome c reductase activity, inhibitor titration, Plasmodium-like mutant PF2. As to conditions: ratio of IC50 on concentration of monomeric bc 1 complex. In kind it is biochemical. As for the experimental part: as §1, §2, §3

Assay [6] has as its target T4, yeast bc 1 complex, cytochrome b mutant Y279S (Saccharomyces cerevisiae, UniProt P00163, Y279S).
T4 construct: Yeast mitochondria were prepared as in; expressed in transfected cells; host or cells: Saccharomyces cerevisiae, mitochondrial transformation; mitochondria
Kind of assay: Quinol:cytochrome c reductase activity, inhibitor titration, mutant Y279S. In kind it is biochemical. The settings on record: ratio of IC50 on concentration of monomeric bc 1 complex. As for the experimental part: as §1, §2, §3

A further assay deals with T5, Yeast WT bc 1 complex (Saccharomyces cerevisiae, UniProt P00163).
T5 construct: Yeast mitochondria were prepared as in; endogenous in cells; host or cells: Saccharomyces cerevisiae mitochondria
In words: Quinol:cytochrome c reductase activity, inhibitor titration, yeast WT mitochondria. In kind it is biochemical. As to conditions: ratio of IC50 on concentration of monomeric bc 1 complex. As for the experimental part: as §2, §3

Assay [7] concerns yeast bc 1 complex, Plasmodium-like Qo mutant PF8. In words: Quinol:cytochrome c reductase activity, inhibitor titration, Plasmodium-like mutant PF8. In kind it is biochemical, Saccharomyces cerevisiae. As to conditions: for IC50: ratio of IC50 on concentration of monomeric bc 1 complex. On the procedure: as §1, §2, §3
The target in assay [8] is T6, bovine bc 1 complex (Bos taurus, UniProt P00157).
T6 construct: Peter Rich; from tissue
In words: Quinol:cytochrome c reductase activity, inhibitor titration, bovine mitochondria. In kind it is biochemical. The settings on record: bovine enzyme; ratio of IC50 on concentration of monomeric bc 1 complex. As for the experimental part: as §2, §3

The subject of assay [9] is P. falciparum bc 1 complex. The settings on record: P. falciparum enzyme; not expressed as molar ratio; cited from earlier work.
For assay [10], the system named is Rhodabacter capsulatus bc 1 complex. As to conditions: bacterial complex, phenylalanine naturally at position 275; cited from earlier work.
The target in assay [11] is T7, yeast bc 1 complex, cytochrome b mutant F278A (Saccharomyces cerevisiae, UniProt P00163, F278A).
T7 construct: Yeast mitochondria were prepared as in; expressed in transfected cells; host or cells: Saccharomyces cerevisiae, mitochondrial transformation; mitochondria
Kind of assay: Quinol:cytochrome c reductase activity, inhibitor titration, mutant F278A. In kind it is biochemical. As to conditions: for IC50 increase (resistance) vs WT: F278A vs yeast WT; for IC50: F278A, ratio of IC50 on concentration of monomeric bc 1 complex. On the procedure:
as §1, §2, §3

The target of assay [12] is T8, yeast bc 1 complex, human-like Qo mutant HSb (Saccharomyces cerevisiae, UniProt P00163, F278A/L275F/M295L).
T8 construct: Yeast mitochondria were prepared as in; expressed in transfected cells; host or cells: Saccharomyces cerevisiae, mitochondrial transformation; mitochondria
In words: Quinol:cytochrome c reductase activity, inhibitor titration, human-like mutant HSb. The settings on record: for IC50: HSb, ratio of IC50 on concentration of monomeric bc 1 complex. In kind it is biochemical. On the procedure:
as §1, §2, §3

Assay [13] addresses T9, yeast bc 1 complex, human-like Qo mutant HSc (Saccharomyces cerevisiae, UniProt P00163, C133V/C134L/F278A/H141F/L275F/M295L/V135P/Y136W).
T9 construct: Yeast mitochondria were prepared as in; expressed in transfected cells; host or cells: Saccharomyces cerevisiae, mitochondrial transformation; mitochondria
Kind of assay: Quinol:cytochrome c reductase activity, inhibitor titration, human-like mutant HSc. In kind it is biochemical. As to conditions: for IC50: HSc, ratio of IC50 on concentration of monomeric bc 1 complex. As for the experimental part:
as §1, §2, §3

The target of assay [14] is T2, yeast bc 1 complex, cytochrome b mutant L275F. As to conditions: vs yeast WT; cited from earlier work.
The subject of assay [15] is Rhodabacter capsulatus bc 1 complex, mutations I281M and R283K (yeast numbering). The arrangement: method as in PMID 15917236. The settings on record: bacterial complex with I281M and R283K; cited from earlier work.
The target in assay [16] is yeast bc 1 complex, human-like Qo mutant HSa. In words: Quinol:cytochrome c reductase activity, inhibitor titration, human-like mutant HSa. In kind it is biochemical, Saccharomyces cerevisiae. As to conditions: ratio of IC50 on concentration of monomeric bc 1 complex. As for the experimental part:
as §1, §2
Cytochrome c reduction activity was measured as described above in presence of increasing concentrations of inhibitors (six to ten different concentrations). Each measurement was repeated at least twice and averaged. […] The mid-point inhibition concentrations (IC50) were determined from the titrations. […]

The test system of assay [17] is yeast bc 1 complex, PF11 with deletion Δ158–161. In words: Quinol:cytochrome c reductase activity, PF11 with deletion Δ158–161. Type of assay: biochemical, Saccharomyces cerevisiae. As to conditions: deletion introduced in PF11; not shown. On the procedure: as §2, §3
The target in assay [18] is T10, yeast bc 1 complex, cytochrome b mutant M295L (Saccharomyces cerevisiae, UniProt P00163, M295L).
T10 construct: Yeast mitochondria were prepared as in; expressed in transfected cells; host or cells: Saccharomyces cerevisiae, mitochondrial transformation; mitochondria
Kind of assay: Quinol:cytochrome c reductase activity, inhibitor titration, mutant M295L. As to conditions: for IC50: M295L, ratio of IC50 on concentration of monomeric bc 1 complex. Type of assay: biochemical. As for the experimental part:
as §1, §2, §3

The next assay relates to P. falciparum. The settings on record: read-out: IC50, P. falciparum proliferation; cited from earlier work.
The test system of assay [19] is bovine bc 1 complex. Kind of assay: Quinol:cytochrome c reductase activity, inhibitor titration, bovine mitochondria. Type of assay: biochemical. The settings on record: bovine vs yeast WT. On the procedure:
as §2, §3

As to `CCOC(=O)c1c[nH]c2cc(Oc3ccc(OC(F)(F)F)cc3)ccc2c1=O` [RCQ06], the IC50 in [1] was more than 500 molar ratio; in [2], more than 500 molar ratio; in [3], 10 molar ratio; in assay [4], 25 molar ratio; in [5], 10 molar ratio; in assay [6] it was more than 500 molar ratio. The IC50 on Yeast WT bc 1 complex is more than 500 molar ratio; in assay [7], 40 molar ratio; on bovine bc 1 complex [8], 40 molar ratio; in assay [9], ~1.3 nM and 1.3 nM. For the same molecule, the “increase in sensitivity vs WT” value in assay [3] (L275F vs yeast WT) was “over 50 fold”.
Take `O=C1C(O)=C([C@H]2CC[C@H](c3ccc(Cl)cc3)CC2)C(=O)c2ccccc21` [atovaquone]: the IC50 is more than 850 molar ratio in assay [1]; approximately 30 nM in [10]; 35 molar ratio in assay [11]; 2 molar ratio in assay [2]; 150 molar ratio in assay [3]; 170 molar ratio in assay [12]. In addition, the IC50 in assay [4] was 3 molar ratio; in [5], 10 molar ratio; in [13], 60 molar ratio; in assay [15] it was 10 nM; in assay [6] it was more than 850 molar ratio; in assay [16], 200 molar ratio. Also, the IC50 on Yeast WT bc 1 complex is 4 molar ratio; in assay [7], 16 molar ratio; on bovine bc 1 complex [8] it was 75 molar ratio; in assay [9], ~3 nM and 3 nM; in [18] it was 10 molar ratio. In addition, the “IC50 increase (resistance) vs WT” value in [11] amounted to 9 fold; in assay [3] (L275F vs yeast WT), 35 fold; in assay [18] (M295L vs yeast WT) it was 2.5 fold. For the same molecule, the “resistance vs WT enzyme” value in [13] (HSc vs yeast WT) was determined as 15 fold. For the same molecule, the “decrease in sensitivity on introducing L275F in yeast bc 1 complex” value in [14] is recorded as “over 20 fold”. Moreover, in assay [17], the “effect of deletion Δ158–161 on sensitivity” value is recorded as “little effect”.
On to `CO/C=C(/C(=O)OC)c1ccccc1Oc1cc(Oc2ccccc2C#N)ncn1` [azoxystrobin], for which the IC50 in [1] was 30 molar ratio; in assay [11] it was 120 molar ratio; in assay [2], 5 molar ratio; in assay [3], 30 molar ratio; in the assay with P. falciparum, 15 nM; in assay [12] it was 160 molar ratio. Further, the IC50 is reported as 40 molar ratio in assay [4]; 16 molar ratio in [5]; 140 molar ratio in assay [13]; 60 molar ratio in [6]; 130 molar ratio in assay [16]; 20 molar ratio at Yeast WT bc 1 complex. In addition, the values for the IC50 (in assay [7]; at bovine bc 1 complex [8]; in assay [18]) were 220 molar ratio, 180 molar ratio and 45 molar ratio, respectively. In assay [11], the “IC50 increase (resistance) vs WT” value is 6 fold. Also, the “resistance conferred by triple mutation” value in assay [12] (HSb vs yeast WT) is 8 fold. Further, the “lowering of resistance by changes in position 133 to 141” value in assay [4] (PF11 vs PF8) is reported as 5 fold. Besides, the “increase in resistance caused by modifications of residues 283 to 299” value in assay [7] came to 10 fold. Further, the “resistance of the mammalian enzyme compared to yeast enzyme” value in the assay on bovine bc 1 complex [19] was 9 fold.
Regarding antimycin, the “sensitivity compared with that of the WT control” value in assay [4] (PF11 vs WT, data not shown) is recorded as “No or very little difference”; in [13] (HSc vs WT, data not shown) it was “No or very little difference”.
